Series [1] has as its system human nasal epithelial cells.
In series [2] the test system is human bronchial epithelial cells.
For series [3] the test system is unchanged. The experiment in a line: Triphosphate levels in human bronchial epithelial cells after 8 h exposure and washout. As to conditions: for Mean Intracellular Compound 1-6 Concentration: bronchial cells, 10 μM Compound 1A for 8 h.
Series [4] in a line: Prediction of human tissue levels of triphosphate from monkey tissue levels. As for the experimental part: Based on the ratio (7.0) of human to monkey concentrations of triphosphate Compound 1-6 as assessed by its in vitro formation in primary hepatocytes, the predicted human tissue level was determined.
Series [5] concerns human hepatocytes. Nature of the series: Triphosphate levels in human hepatocytes. Particulars: for Mean Intracellular Compound 1-6 Concentration: human hepatocytes, 10 μM Compound 1A. Type of series: in vitro ADME.
For series [6], the system named is human nasal epithelial cells. The experiment in a line: Triphosphate levels in human nasal epithelial cells after 8 h exposure and washout.
Series [7] relates to monkey hepatocytes. Nature of the series: Triphosphate levels in monkey hepatocytes. As to conditions: 10 μM Compound 1A. Type of series: in vitro ADME.
The nature of series [8]: Lung, kidney and liver tissue levels in non-human primates after oral Compound 2A. As to conditions: for half-life: after oral Compound 2A 30 mg/kg BID for 3 days; for trough (12 h) tissue level: 12 hours after the last dose of Compound 2A. Type of series: in vivo, cynomolgus monkeys. Here is the method: (This corresponds to 55 ng/g (lung), 57 ng/g (kidney), and 43 ng/g (liver)). […] Plasma tough level of Compound 1-7, the surrogate for Compound 1-6 in plasma, was 39 ng/mL.

The nature of series [9]: Plasma PK of metabolites in non-human primates after oral Compound 2A. Particulars: cynomolgus, cynomolgus monkey, in vivo, 30 mg/kg.
The nature of series [10]: in vivo. Particulars: cynomolgus, cynomolgus monkey, po.
The test system of series [11] is HCoV. Nature of the series: Protection of MES-1 cells from virus-induced cytopathogenicity (MTT). It counts as cell-based. As to conditions: unidentified human coronavirus, 72 h, 50% protection of MES-1 cells, day 3 post-infection. As for the experimental part: (§1) After a 3-day incubation at 37° C. cell viability was determined by the MTT method as described by Pauwels et al. (J. Virol. Methods 1988, 20, 309-321).
On the technique in general: Protection from cytopathic effect is a common read-out in antiviral testing.

Series [12] relates to HCoV-229E. The experiment in a line: Protection of BHK-21 cells from virus-induced cytopathogenicity (MTT). It counts as cell-based, human coronavirus. Particulars: Human coronavirus 229E, read-out: EC50. Here is the method: as §1
In an initial screening, BHK-21 cells acutely infected with a seasonal human alpha coronavirus, HCoV-229E, were exposed to serial dilutions of Compound 1A. […] No toxicity was detected from either drug.
(§2) BHK-21 cells: Test compounds were dissolved in DMSO at 100 mM and then diluted in Minimum Essential Medium with Earle's salts (MEM-E) containing 1 mM sodium pyruvate and 25 μg/mL kanamycin, supplemented with 10% FBS (growth medium) to final concentrations of 100, 20, 4 and 0.8 μM (two 24-well replica plates each). After BHK-21 cells were grown to confluency in 96-well plates, growth medium was replaced with fresh maintenance medium (growth medium with 1% inactivated FBS in place of 10% FBS) containing serially diluted test compound and HCoV-229E at a multiplicity of infection (MOI) of 0.01. Uninfected cells in the presence of serially diluted compound were used to assess the cytotoxicity of compounds. After a 3-day incubation at 37° C. in a humidified 5% CO2 atmosphere, cell viability was determined by the MTT method (Pauwels, R et al. J. Virol. Methods 20(4):309-321 (1988)).

The subject of series [13] is mock infected MES-1 cells. Nature of the series: Cytotoxicity in mock infected MES-1 cells (MTT). Type of series: cell-based. Particulars: 3 days, Table 3B. Here is the method: (§3) To determine the cytotoxicity, cells were seeded at an initial density of 1×10^6 cells/mL in 96 well plates containing Minimum Essential Medium with Earles's salts (MEM-E), L-glutamine, 1 mM sodium pyruvate and 25 mg/L kanamycin, supplemented with 10% fetal bovine serum. Cell cultures were then incubated at 37° C. in a humidified 5% CO2 atmosphere in the absence or presence of serial dilutions of test compounds. Cell viability was determined by the MTT method.

Series [14] in a line: Cytotoxicity in mock infected MES-1 cells (MTT). Type of series: cell-based. As to conditions: Table 3A. Here is the method: as §3
Series [15] has as its system mock infected BHK cells. Nature of the series: Cytotoxicity in mock infected BHK-21 cells (MTT). It counts as cell-based, hamster. As to conditions: mock infected BHK cells; MTT; 3 days; Table 2B. Here is the method: as §3, §2
The nature of series [16]: Cytotoxicity in mock infected BHK-21 cells (MTT). As to conditions: hamster. Type of series: cell-based, hamster. Here is the method: as §3, §2
The subject of series [17] is HCV. As to conditions: HCV-infected subjects, cited from earlier work.
Series [18] concerns SARS-CoV-2 (WA1). Nature of the series: microbe, parasite or virus in culture. It counts as cell-based. As to conditions: for EC90: Severe acute respiratory syndrome coronavirus 2, HAE.
Series [19] in a line: in vitro. Particulars: human.
In series [20] the test system is HCoV-229E. The experiment in a line: microbe, parasite or virus in culture. Particulars: for EC50: Huh-7, read-out: Neutral Red Assay EC50. It counts as cell-based, human coronavirus alpha-229E.
For series [21], the system named is Huh-7 cells. As to conditions: human.
The mark [22] stands for this setting: BHK, 72 h, 50% protection of BHK cells, MTT, day 3 post-infection, Table 2A.
[23] abbreviates: BHK, 72 h, 50% protection of BHK cells, MTT, day 3 post-infection, Table 2B.
Setting [24] is: mock infected BHK-21 cells, mock infected BHK cells, MTT, 3 days, Table 2A.
Setting [25] is: read-out: Virus Yield Reduction Assay EC90.
Setting [26] is: Human coronavirus 229E, Huh-7, read-out: Virus Yield Reduction Assay EC90.

Values joined by “and” are separate entries in the source; they are usually repeats but may differ in a detail not shown here. Equal entries are not always repeated. Where two headings read alike, the source gives them in different places. Marks after values point to notes of the source that are not given here.

On to `Nc1ccn([C@@H]2O[C@@](CO)(CCl)[C@@H](O)[C@H]2F)c(=O)n1` [ALS-8112], for which the “ratio of triphosphate from Compound 1A vs. the named drug” value in series [1] amounted to 3; in series [2], 5.

As for `C[C@@]1(F)[C@H](O)[C@@H](COP(=O)(O)OP(=O)(O)OP(=O)(O)O)O[C@H]1n1cnc2c(=O)[nH]c(N)nc21` [Compound 1-6], the “Mean Intracellular Compound 1-6 Concentration” value in [3] (15 h after washout) turned out to be 560 µM; in series [3] (48 h after washout) it was 290 µM; in series [5] (incubation 2 h), 14 µM; in [5] (incubation 4 h), 22 µM; in [5] (incubation 8 h), 26 µM; in [5] (incubation 24 h) it was 17 µM. Further, the “Mean Intracellular Compound 1-6 Concentration” value in series [6] (nasal cells, 10 μM Compound 1A for 8 h, 24 h after washout) turned out to be 170 µM; in series [7] (incubation 2 h), 2.1 µM; in [7] (incubation 4 h) it was 3.1 µM; in series [7] (incubation 8 h), 2.9 µM; in [7] (incubation 24 h) it was 1.7 µM; in [8] (monkey kidney, 12 h post last dose of Compound 2A), 0.13 µM. Besides, the “Mean Intracellular Compound 1-6 Concentration” value in [8] (monkey kidney, 24 h post last dose of Compound 2A) was 0.032 µM; in series [8] (monkey kidney, 48 h post last dose of Compound 2A), 0.004 µM; in [8] (monkey liver, 12 h post last dose of Compound 2A), 0.09 µM and 0.089 µM; in [8] (monkey liver, 24 h post last dose of Compound 2A) it was 0.021 µM; in [8] (monkey liver, 48 h post last dose of Compound 2A), “Not Detected”; in [8] (monkey lung, 12 h post last dose of Compound 2A) it was 0.14 µM. Moreover, the “Mean Intracellular Compound 1-6 Concentration” value worked out at 0.037 µM in [8] (monkey lung, 24 h post last dose of Compound 2A) and 0.009 µM in series [8] (monkey lung, 48 h post last dose of Compound 2A). In addition, the half-life in series [3] (intracellular triphosphate in bronchial cells after exposure to 10 μM Compound 1A) is 39 h; in [3] (intracellular triphosphate in bronchial epithelial cells after Compound 1A), “over 1.5 days”; in series [3] (intracellular triphosphate in bronchial epithelial cells after Compound 1A, listed as active triphosphate species), “greater than 1.5 days”; in [6] (intracellular triphosphate in nasal cells after exposure to 10 μM Compound 1A) it was 38 h; in [6] (intracellular triphosphate in nasal epithelial cells after Compound 1A) it was “over 1.5 days”; in series [6] (intracellular triphosphate in nasal epithelial cells after Compound 1A, listed as active triphosphate species), “greater than 1.5 days”. Moreover, the values for the half-life in series [8] (monkey kidney tissue), in series [8] (monkey liver tissue) and in [8] (monkey lung tissue) were 8.0 h, 4.3 h and 9.4 h, respectively. For the same molecule, the “Predicted Intracellular Triphosphate 1-6 Conc. at 12 hours Post-dose” value in series [4] was 0.62 µM and 0.91 µM and 0.98 µM. In addition, the “predicted human lung intracellular level at trough (12 h) relative to in vitro EC90” value in series [4] (1100 mg LD + 550 mg BID, EC90 against SARS-CoV-2 in HAE cell cultures) is “above the in vitro EC90”. Also, the “ratio of human to monkey hepatocyte triphosphate concentrations” value in series [5] (assessed by AUC0-24 values) was 7 fold and 7.0 fold. Moreover, the entries for the “trough (12 h) tissue level” value in series [8] (monkey kidney), in series [8] (monkey liver) and in [8] (monkey lung) were 57 ng/g, 43 ng/g and 55 ng/g, respectively. For the same molecule, the “triphosphate concentration in the lung compared to the liver” value in series [8] (monkey, 12-hour steady-state trough, oral Compound 2A 30 mg/kg BID) worked out at 1.6 fold.

As to `C[C@@]1(F)[C@H](O)[C@@H](CO)O[C@H]1n1cnc2c(=O)[nH]c(N)nc21` [Compound 1-7, 2-amino-9-((2R,3R,4R,5R)-3-fluoro-4-hydroxy-5-(hydroxymethyl)-3-methyltetrahydrofuran-2-yl)-1,9-dihydro-6H-purin-6-one], in series [9], the Cmax turned out to be 160 nM and the Tmax was found to be 2 h. In addition, the concentration at 12 h in series [10] worked out at 39 ng/mL. In addition, in series [10] (30 mg/kg), the AUC(0-t) stood at 0.47 µM·h and the half-life was 17 h.

For `CNc1nc(N)nc2c1ncn2[C@@H]1O[C@H](CO[P@](=O)(N[C@@H](C)C(=O)OC(C)C)Oc2ccccc2)[C@@H](O)[C@@]1(C)F` [Compound 1B], the EC50 turned out to be 2 µM in [11] (Table 3A), 2.2 µM in [11] (Table 3B), 2.5 µM in series [12] (setting [22]) and 2.9 µM in series [12] (setting [23]). Besides, the CC50 in series [13] and in [15] was greater than 100 µM throughout. Moreover, the CC50 at 3 days in series [14] and in series [16] (setting [24]) was greater than 100 µM each time.

`CNc1nc(N)nc2c1ncn2[C@@H]1O[C@H](CO[P@@](=O)(N[C@@H](C)C(=O)OC(C)C)Oc2ccccc2)[C@@H](O)[C@@]1(C)F` [Compound 2A]: the efficacy result in [17] is listed as “high rate of efficacy”. Besides, the safety and tolerability result in series [17] (up to 12 weeks) was “safe and well-tolerated”.

As for `O=c1nc(NO)ccn1[C@@H]1O[C@H](CO)[C@@H](O)[C@H]1O` [N^4-hydroxycytidine, reference compound], the “Selectivity Index” value in series [18] is greater than 5.1. In addition, the values for the EC90 in [18] (read-out: EC90 of the single replicates) and in series [18] (setting [25]) were 4.7 µM and 3.9 µM, respectively. Also, the CC50 in series [19] is greater than 19 µM.

For `CCN(CC)CCCC(C)Nc1ccnc2cc(Cl)ccc12` (stereo not drawn) [chloroquine, reference compound], the EC50 in series [20] (Human coronavirus 229E) came out at 8.1 µM. In series [20] (setting [26]), the EC90 was less than 0.05 µM. Further, in [21], the CC50 is 21 µM.

`CCN(CCO)CCCC(C)Nc1ccnc2cc(Cl)ccc12` (stereo not drawn) [hydroxychloroquine, reference compound]: in series [20], the “Selectivity Index (CC50/EC50)” value was 3.5^c. Also, the EC50 in series [20] (Human coronavirus 229E) was 7.4 µM. In addition, the EC90 in series [20] (setting [26]) is less than 0.05 µM; in series [20] (setting [25]) it was less than 0.048 µM. In series [21], this molecule yielded a CC50 of 26 µM.

For `CC(C)OC(=O)[C@H](C)N[P@](=O)(OC[C@H]1O[C@@H](n2ccc(=O)[nH]c2=O)[C@](C)(F)[C@@H]1O)Oc1ccccc1` [sofosbuvir, reference compound], the EC50 in series [11] (Table 3A) is greater than 100 µM; in [11] (Table 3B), greater than 100 µM; in series [12] (setting [22]) it was greater than 100 µM; in [12] (setting [23]), greater than 100 µM; in [12] (BHK-21, HCoV-229E in BHK-21, dye staining, average of 2 experiments, Table 5), greater than 100 µM. Also, the CC50 in series [13] and in series [15] was greater than 100 µM in each case. In addition, the CC50 at 3 days in series [14] is greater than 100 µM; in [16] (setting [24]) it was greater than 100 µM; in series [16] (uninfected BHK-21 cells, BHK-21, Table 5), greater than 100 µM.

One may read the half-life as the time needed for the level to fall by half in the phase considered. As a reminder, the Cmax is the maximum level reached in the sampled fluid or tissue. As usually defined, the Tmax is the time from dosing to the highest level. A word on the AUC(0-t): it is exposure summed from dosing to a finite time, without extrapolation to infinity. For orientation: EC50 means the concentration giving half of the maximal effect. Usually EC90 stands for the point of the concentration-response curve where the effect stands at 90%.
